Article PMC11169864, “Application of cysteinyl prolyl ester for the synthesis of cyclic peptides containing an RGD sequence and their biological activity measurement” (Frontiers in Chemistry, 2024)
Non-standard residues stand in square brackets, D forms with d.

Test system: αvβ6 integrin
Experiment: Integrin inhibition assay (ELISA): inhibition of αvβ6 integrin binding to LAP (TGF-β1)
Parameters: species or system human
Settings: 1 µM peptide preincubated 1 h at room temperature with 10 nM integrin αvβ6, 1.0 mM Mn2+, plate coated with 10 nM LAP (TGF-β1), absorbance at 490 nm, mean ± standard error, N = 3, numbers only in Figure 8, text gives comparisons in words
From the text: Among the RGD-binding integrins, we selected αvβ6 integrin for measurement of the inhibition activity of the cyclic peptides. The αvβ6 integrin is reported to recognize the sequence beyond the RGD motif, RGDLXXL ([Dong et al., 2014]). Therefore, the inhibition activity of the cyclic peptides is expected to vary depending on the configuration and the modification at the CPC moiety. In addition, the inhibitor of the αvβ6 integrin is still under development ([John et al., 2020]), while an efficient inhibitor, cilengitide, exists for the αvβ3 and αvβ5 integrins ([Stupp and Ruegg, 2007]). […] The inhibitory activity of the commonly used RGD tripeptide was also measured as a control. […]
The integrin inhibition assay was performed as follows. […] The bound αvβ6 integrin was detected by the biotinylated anti-Velcro polyclonal antibody and horseradish peroxidase-conjugated streptavidin. […] The bound antibody was detected by horseradish peroxidase-conjugated streptavidin (0.53 μg/mL), followed by colorimetrically measuring the amount of bound αvβ6 integrin using o-phenylenediamine (0.4 mg/mL; FUJIFILM Wako) and H2O2 (0.006%) in a 25 mM citric acid/50 mM Na2HPO4 buffer. The colorimetric reaction was stopped with 100 μL of 2.5 M H2SO4, and the absorbance of the chromogenic substrate was measured at 490 nm using a microplate reader (Molecular Devices EMax). […]

| Substance | Inhibitory activity for binding of the αvβ6 integrin with LAP (TGF-β1) |
| --- | --- |
| cyclo([dC]RGDC[dP]) (cysteine pairing not given here) [3b] | stronger than 3c and 3d |
| cyclo(CRGDC[dP]) (cysteine pairing not given here) [3a] | stronger than 3c and 3d |
